Literature values, collected in patent publication US20050129759A1, “Sustained release compositions and controlled delivery method” (priority 2003, published 2005).

Details: not entrapped; stated as typical behaviour

## NC(N)=O.OO [urea peroxide]
  stability of free active agent: very unstable, shock sensitive, and deteriorates very quickly on contact with air humidity
